# Assay results reported in publication PMC6718988, “Bioactivity and Bactericidal Mechanism of Histidine-Rich β-Hairpin Peptide Against Gram-Negative Bacteria” (International Journal of Molecular Sciences, 2019).
# Read-outs that look alike come from different tables or passages of the source. Where a SMILES comes first, the peptide text is derived from it. Bridges are numbered along the chain shown (N, C = ends). [ ]: non-standard residue; d: D form. The star is where a group is joined. X1 = CC[C@H](C)CCCCC(=O)*; Dab = NCC[C@H](N)C(=O)O
# Tests used:
# [1] = test system: E. coli ATCC25922; experiment: microbe, parasite or virus in culture
# Description: (§1) The minimum inhibitory concentration (MIC) was measured using a broth microdilution method to determine the in vitro antimicrobial activity of the peptides. Bacteria were inoculated into MHB and incubated overnight at 37 °C until the bacteria were in log phase growth. Next, we corrected the bacterial concentration to approximately 1 × 10^5 CFU/mL using MHB. The peptides were added to 96-well plates containing 0.01% acetic acid and 0.2% bovine serum albumin at final concentrations ranging from 0.25 to 128 μM. After incubation at 37 °C for 24 h, the absorbance was measured at 492 nm using a microplate reader (Tecan GENios F129004, Tecan, Austria). Broth containing microbes and […] were used as positive and negative controls, respectively. The lowest peptide concentration with no increase in absorbance compared to that of the negative control was defined as the MIC. The experiments were independently performed three times.
# [2] = test system: E. coli K88; experiment: microbe, parasite or virus in culture
# Description: as §1
# [3] = test system: E. coli K99; experiment: microbe, parasite or virus in culture
# Description: as §1
# [4] = test system: E. coli UB1005; experiment: microbe, parasite or virus in culture
# Description: as §1
# [5] = test system: P. aeruginosa ATCC27853; experiment: microbe, parasite or virus in culture
# Description: as §1
# [6] = test system: S. aureus ATCC29213; experiment: microbe, parasite or virus in culture
# Description: as §1
# [7] = test system: S. epidermidis ATCC12228; experiment: microbe, parasite or virus in culture
# Description: as §1
# [8] = test system: S. pullorum C7913; experiment: microbe, parasite or virus in culture
# Description: as §1
# [9] = test system: methicillin-resistant S. aureus ATCC43300; experiment: microbe, parasite or virus in culture
# Description: as §1
# [10] = test system: Gram-negative bacteria; experiment: MICs against Gram-negative strains (geometric mean, range); type: cell-based; settings: for geometric mean MIC: read-out: MBC (GM), geometric mean of MICs, Gram (−); for MBC (GM), geometric mean of MICs, Gram (−): Gram-negative strains, 256 μM used where no activity at 128 μM
# Description: as §1
# [11] = RP-HPLC retention time as measure of hydrophobicity; type: physicochemical; settings: analytical Kromasil C18 column 4.6 mm × 250 mm, 5.0 μm, acetonitrile, flow 1.0 mL/min, used as measure of hydrophobicity
# Description: The hydrophobicities of the peptides in solution were reliably mirrored by their high-performance liquid chromatography (HPLC)retention times. The retention times for peptide HI2, HW2, HV2, HF2, and PG-1 were 11.13, 10.55, 12.20, 18.06 and 12.56 min, respectively, indicating the following hydrophobic order: HF2 > PG-1 > HV2 > HI2 > HW2(Table 1).
# The designed peptides were synthesized and purified by GL Biochem (Shanghai, China). Acetonitrile was used on an analytical Kromasil C18 column (4.6 mm × 250 mm, 5.0 μm, LC 3000, Beijing, China), and the purity of the peptides was determined to be greater than 95% via reversed-phase high-performance liquid chromatography (RP-HPLC) with a flow rate of 1.0 mL/min. The experimental molecular weights of the peptides were evaluated via ESI-MS analysis, and these values were very close to the calculated masses. Next, the peptides were dissolved in deionized water at a concentration of 2.56 mM, and the peptide solutions were stored at −20 °C.
# [12] = test system: Gram-positive and Gram-negative bacteria
# Description: as §1
# [13] = test system: Gram-positive bacteria
# Description: as §1
# [14] = LPS binding assay (BODIPY-TR-cadaverine displacement); set-up: species or system E. coli; settings: peptide concentration higher than 4 μM; 50 μg/mL LPS, 5 μg/mL BODIPY-TR cadaverine, Tris 50 mM pH 7.4; 100% = 10 μg/mL polymyxin B
# Description: The abilities of the antimicrobial peptides to bind LPS were determined using the fluorescent dye BODIPY-TR-cadaverine (BC) substitution method. LPS (50 μg/mL) from E. coli O111:B4 was incubated with BC (5 μg/mL) in Tris buffer (50 mm, pH 7.4) for 4 h. Next, 50 μL of various concentrations of peptides (final concentration of 1–64 μM) and 50 μL of LPS-BC mixture were added to 96-well plates, and the fluorescence was measured using a fluorescence spectrophotometer (Infinite 200 pro, Tecan, China) at an excitation wavelength of 580 nm and an emission wavelength of 620 nm. Each test was performed three times. The values were converted to %∆F (AU) using the following equation:%ΔF (AU) = [(Fobs − F0)/(F100 − F0)] × 100 where Fobs is the fluorescence value measured in the presence of the peptide, F0 is the initial fluorescence of LPS with BC without the addition of peptides, F100 is the fluorescence value produced by adding 10 μg/mL polymyxin B.
# [15] = test system: human red blood cells (hRBCs); experiment: Hemolytic activity; settings: 1 h, OD 570 nm; for hemolysis rate: at the highest concentration (128 μM), 1% hRBC in PBS, 37 °C, 0.1% Triton X-100 positive control; for MHC, minimum hemolytic concentration: concentration causing 5% hemolysis of hRBC, 1% hRBC in PBS pH 7.4, 37 °C, repeated three times
# Description: Briefly, collected human red blood cells (hRBCs) were washed three times with PBS (pH 7.4) and diluted to 1% in PBS. Next, equal volumes of blood cells were mixed with different peptide concentrations in 96-well plates followed by incubated at 37 °C for 1 h. The mixtures were centrifuged (1000 g, 5 min), and the supernatants were transferred to 96-well plates to measure the optical density (OD) at 570 nm. Untreated blood cells were used as negative controls, and 0.1% Triton X-100-treated blood cells were used as positive controls. The minimum peptide concentration corresponding to 5% hemolytic activity was defined as the minimal hemolytic concentration (MHC). These assays were independently repeated three times.
# [16] = Escherichia coli, ATCC25922, 24 h
# [17] = Pseudomonas aeruginosa, ATCC27853, 24 h
# [18] = Staphylococcus aureus, ATCC29213, 24 h
# [19] = Staphylococcus epidermidis, ATCC12228, 24 h
# [20] = Salmonella enterica, PULLORUM, 24 h
# [21] = Staphylococcus aureus, ATCC43300, 24 h
# [22] = E. coli K88, MHB, about 1 × 10^5 CFU/mL, 37 °C, 24 h, three independent experiments
# [23] = E. coli K99, MHB, about 1 × 10^5 CFU/mL, 37 °C, 24 h, three independent experiments
# [24] = P. auruginosa 27853, MHB, about 1 × 10^5 CFU/mL, 37 °C, 24 h, three independent experiments
# [25] = S.aureus 29213, MHB, about 1 × 10^5 CFU/mL, 37 °C, 24 h, three independent experiments
# [26] = S.epidermidis 12228, MHB, about 1 × 10^5 CFU/mL, 37 °C, 24 h, three independent experiments
# [27] = S.aureus 43300 (methicillin-resistant), MHB, about 1 × 10^5 CFU/mL, 37 °C, 24 h, three independent experiments
SMILES,"MIC [1, 16]","MIC ([2]; Escherichia coli, K88, 24 h)","MIC ([3]; Escherichia coli, K99, 24 h)","MIC ([4]; Escherichia coli, UB1005, 24 h)","MIC [5, 17]","MIC [6, 18]","MIC [7, 19]","MIC [8, 20]","MIC [9, 21]",geometric mean MIC [10],Retention Time [11],"MIC ([1]; ATCC25922, 24 h)","MIC [2, 22]","MIC [3, 23]","MIC ([4]; UB1005, 24 h)","MIC ([8]; C7913, 24 h)","MBC (GM), geometric mean of MICs, Gram (−) [10]","MBC (GM), geometric mean of MICs, Gram (+,−) ([12]; 24 h)","MBC (GM), geometric mean of MICs, Gram (+) ([13]; 24 h)",LPS binding ability relative to binding activity of polymyxin B [14],also measured
CC(C)(O/N=C(\C(=O)N[C@@H]1C(=O)N2C(C(=O)[O-])=C(C[n+]3ccccc3)CS[C@H]12)c1csc(N)n1)C(=O)O [Ceftazidime],2 µM,1 µM,0.5 µM,1 µM,2 µM,16 µM,16 µM,1 µM,16 µM,1.12 µM,,,,,,,,,,,
CNC(C)C1CCC(N)C(OC2C(N)CC(N)C(OC3OCC(C)(O)C(NC)C3O)C2O)O1 (centres unmarked) [Gentamicin],1 µM,1 µM,0.5 µM,0.5 µM,1 µM,1 µM,1 µM,1 µM,8 µM,0.79 µM,,,,,,,,,,,
N=C(N)NCCC[C@H](NC(=O)[C@H](CCCNC(=N)N)NC(=O)[C@H](Cc1ccccc1)NC(=O)[C@H](Cc1c[nH]cn1)NC(=O)[C@H](Cc1ccccc1)NC(=O)[C@H](Cc1c[nH]cn1)NC(=O)[C@H](Cc1ccccc1)NC(=O)CNC(=O)[C@H]1CCCN1C(=O)[C@H](Cc1ccccc1)NC(=O)[C@H](Cc1c[nH]cn1)NC(=O)[C@H](Cc1ccccc1)NC(=O)[C@H](Cc1c[nH]cn1)NC(=O)[C@H](Cc1ccccc1)NC(=O)[C@H](CCCNC(=N)N)NC(=O)[C@@H](N)CCCNC(=N)N)C(N)=O [HF2] (H-RRFHFHF[dP]GFHFHFRR-NH2; N-terminus assumed),,,,,,,,,,,18.06 min,4 µM,2 µM,4 µM,8 µM,4 µM,8.00 µM,8.64 µM,10.08 µM,higher than 60%,"MIC ([5]; ATCC27853, 24 h): >128 µM; MIC ([6]; ATCC29213, 24 h): 64 µM; MIC ([7]; ATCC12228, 24 h): 4 µM; MIC ([9]; ATCC43300, 24 h): 4 µM; hemolysis rate [15]: 30.46%; MHC, minimum hemolytic concentration [15]: 16 µM"
CC[C@H](C)[C@H](NC(=O)CNC(=O)[C@H]1CCCN1C(=O)[C@@H](NC(=O)[C@H](Cc1c[nH]cn1)NC(=O)[C@@H](NC(=O)[C@H](Cc1c[nH]cn1)NC(=O)[C@@H](NC(=O)[C@H](CCCNC(=N)N)NC(=O)[C@@H](N)CCCNC(=N)N)[C@@H](C)CC)[C@@H](C)CC)[C@@H](C)CC)C(=O)N[C@@H](Cc1c[nH]cn1)C(=O)N[C@H](C(=O)N[C@@H](Cc1c[nH]cn1)C(=O)N[C@H](C(=O)N[C@@H](CCCNC(=N)N)C(=O)N[C@@H](CCCNC(=N)N)C(N)=O)[C@@H](C)CC)[C@@H](C)CC [HI2] (H-RRIHIHI[dP]GIHIHIRR-NH2; N-terminus assumed),,,,,,,,,,,11.13 min,32 µM,32 µM,>128 µM,16 µM,16 µM,50.80 µM,87.09 µM,256 µM,higher than 60%,"MIC [5, 24]: >128 µM; MIC [6, 25]: >128 µM; MIC [7, 26]: >128 µM; MIC [9, 27]: >128 µM; hemolysis rate [15]: 3.4%; MHC, minimum hemolytic concentration [15]: >128 µM"
"CC[C@H](C)CCCCC(=O)N[C@@H](CCN)C(=O)N[C@H](C(=O)N[C@@H](CCN)C(=O)N[C@H]1CCNC(=O)[C@H]([C@@H](C)O)NC(=O)[C@H](CCN)NC(=O)[C@H](CCN)NC(=O)[C@H](CC(C)C)NC(=O)[C@@H](Cc2ccccc2)NC(=O)[C@H](CCN)NC1=O)[C@@H](C)O [Polymyxin B, polymyxin B] (X1-[Dab]T[Dab][Dab][Dab][dF]L[Dab][Dab]T; lactam 4-C (inferred); N-terminus assumed)",,,,,,,,,,,,,0.5 µM,1 µM,,,1.12 µM,,,,"MIC ([1]; E. coli 25922, MHB, about 1 × 10^5 CFU/mL, 37 °C, 24 h, 0.25-128 μM, three independent experiments): 2 µM; MIC ([4]; E. coli UB1005, MHB, about 1 × 10^5 CFU/mL, 37 °C, 24 h, three independent experiments): 1 µM; MIC [5, 24]: 2 µM; MIC [6, 25]: 64 µM; MIC [7, 26]: 32 µM; MIC ([8]; S.pullorum C7913, MHB, about 1 × 10^5 CFU/mL, 37 °C, 24 h, three independent experiments): 1 µM; MIC [9, 27]: 64 µM; MBC (GM), geometric mean of MICs, Gram (+,−) ([12]; all strains, 256 μM used where no activity at 128 μM): 4 µM; MBC (GM), geometric mean of MICs, Gram (+) ([13]; Gram-positive strains, 256 μM used where no activity at 128 μM): 50.8 µM"
CN[C@H](CC(C)C)C(=O)N[C@H]1C(=O)N[C@@H](CC(N)=O)C(=O)N[C@H]2C(=O)N[C@H]3C(=O)N[C@H](C(=O)N[C@H](C(=O)O)c4cc(O)cc(O)c4-c4cc3ccc4O)[C@H](O)c3ccc(c(Cl)c3)Oc3cc2cc(c3O[C@@H]2O[C@H](CO)[C@@H](O)[C@H](O)[C@H]2O[C@H]2C[C@](C)(N)[C@H](O)[C@H](C)O2)Oc2ccc(cc2Cl)[C@H]1O [Vancomycin],8 µM,2 µM,4 µM,16 µM,> 128 µM,0.5 µM,0.5 µM,8 µM,0.5 µM,11.3 µM,,,,,,,,,,,
